Measurements as given in ChEMBL document CHEMBL4715747 (Eur J Med Chem, 2016).
Activity calls are given as the source filed them. The calls are words filed in the database; no cut-off is given here.

Assays:
H22 [1] = test: Antitumor activity against mouse H22 cells transplanted in Kunming mouse assessed as tumor growth inhibition at 100 mg/kg/day, po administered 5 days per week for 2 weeks; assay type: functional, organism-based
PLC-PRF-5 [2] = test: Antiproliferative activity against human PLC-PRF-5 cells after 48 hrs by MTT assay; conditions: PLC-PRF-5, 48 h
KG-1 = test: Antiproliferative activity against human KG1 cells after 48 hrs by MTT assay; conditions: KG-1, 48 h
HEL = test: cells; conditions: Homo sapiens, 48 h
Description: Antiproliferative activity against human HEL cells after 48 hrs by MTT assay

HepG2 = test: Antiproliferative activity against human HepG2 cells after 48 hrs by MTT assay; conditions: HepG2, 48 h
[3] = Antiproliferative activity against human ES2 cells after 48 hrs by MTT assay; conditions: ES-2, 48 h
[4] = Antiproliferative activity against human H7402 cells after 48 hrs by MTT assay; conditions: H7402, 48 h
HeLa = test: Antiproliferative activity against human HeLa cells after 48 hrs by MTT assay
MDA-MB-231 = test: cells; conditions: Homo sapiens, MDA-MB-231, 48 h
Description: Antiproliferative activity against human MDA-MB-231 cells after 48 hrs by MTT assay

HCT-116 = test: Antiproliferative activity against human HCT-116 cells after 48 hrs by MTT assay; conditions: HCT-116, 48 h
H22 [5] = test: Antitumor activity against 5-FU-resistant mouse H22 cells transplanted in Kunming mouse assessed as tumor growth inhibition at 200 uM/kg/day, po administered for 14 days; assay type: functional, organism-based; conditions: time 14.0 day
PC-3 = test: cells; conditions: Homo sapiens, PC-3, 48 h
Description: Antiproliferative activity against human PC-3 cells after 48 hrs by MTT assay

[6] = Antiproliferative activity against human 3AO cells after 48 hrs by MTT assay
MCF7 = test: Antiproliferative activity against human MCF7 cells after 48 hrs by MTT assay; conditions: MCF7, 48 h
H22 [7] = test: Antitumor activity against mouse H22 cells transplanted in Kunming mouse assessed as tumor growth inhibition at 20 mg/kg/day, ip administered 5 days per week for 2 weeks; assay type: functional, organism-based
[8] = Toxicity in BALB/c athymic nude mouse xenografted with human PLC-PRF-5 cells assessed as change in body weight at 20 to 80 mg/kg, iv; assay type: organism-based; conditions: in vivo, dose 20-80 mg/kg
H22 [9] = test: Antitumor activity against mouse H22 cells transplanted in iv dosed Kunming mouse assessed as tumor growth inhibition administered 5 days per week for 2 weeks; assay type: functional, organism-based; conditions: dose 20-80 mg/kg
HUVEC [10] = test: Anti-angiogenesis activity in HUVEC assessed as inhibition of capillary like tube formation at 30 uM incubated for 6 hrs by matrigel based capillary tube formation assay; assay type: functional, Homo sapiens; design: scale not given: the % may be the effect or the level left
H22 [11] = test: Antitumor activity against mouse H22 cells transplanted in orally dosed Kunming mouse assessed as tumor growth inhibition administered 5 days per week for 2 weeks; assay type: functional, organism-based; conditions: dose 40-80 mg/kg
PLC-PRF-5 [12] = test: Antitumor activity against human PLC-PRF-5 cells xenografted in orally dosed NOD/SCID mouse assessed as tumor growth inhibition; assay type: functional, organism-based; conditions: dose 100-120 mg/kg
H22 [13] = test: Antitumor activity against mouse H22 cells transplanted in Kunming mouse assessed as tumor growth inhibition at 80 mg/kg/day, po administered 5 days per week for 2 weeks; assay type: functional, organism-based
H22 [14] = test: Antimetastatic activity against mouse H22 cells inoculated in orally dosed Kunming mouse assessed as reduction in lung metastatic nodes administered for 5 days starting from day 11 post inoculation and 2 days of withdrawal measured after 24 days; assay type: functional, organism-based; conditions: dose 80-100 mg/kg, time 5.0 day
PLC-PRF-5 [15] = test: Antitumor activity against human PLC-PRF-5 cells xenografted in iv dosed BALB/c athymic nude mouse assessed as tumor growth inhibition; assay type: functional, organism-based; conditions: dose 20-80 mg/kg
[16] = Prodrug conversion in human plasma assessed as release of active metabolites 5-FU and Ube measured within 30 mins at 37 degC; assay type: ADME, cell-free; conditions: 0.5 h
[17] = Toxicity in Kunming mouse transplanted with 5-FU-resistant mouse H22 cells assessed as change in body weight at 200 uM/kg/day, po administered daily for 14 days; assay type: organism-based; conditions: in vivo, 336 h, time 14 day
[18] = Toxicity in Kunming mouse transplanted with mouse H22 cells assessed as side effects at 40 to 80 mg/kg/day, po administered 5 days per week for 2 weeks; assay type: organism-based; conditions: in vivo, 336 h, dose 40-80 mg/kg/day
Aorta = test: Anti-angiogenesis activity in Wistar rat thoracic aortic rings assessed as decrease in number of microvessels sprouting at 20 ug/ml treated every other day for 9 days; assay type: functional, tissue-based; conditions: dose 20.0 µg/ml, time 9.0 day
[19] = Toxicity in NOD/SCID mouse xenografted with human PLC-PRF-5 cells assessed as change in body weight at 100 to 120 mg/kg, po; assay type: organism-based; conditions: in vivo, dose 100-120 mg/kg
[20] = Toxicity in Kunming mouse transplanted with mouse H22 cells assessed as change in body weight at 40 to 80 mg/kg/day, po administered 5 days per week for 2 weeks; assay type: organism-based; conditions: in vivo, 336 h, dose 40-80 mg/kg/day
H22 [21] = test: Antitumor activity against mouse H22 cells transplanted in Kunming mouse assessed as tumor growth inhibition at 80 mg/kg/day, iv administered 5 days per week for 2 weeks relative to treated combination of 5-FU and Ube; assay type: functional, organism-based
Aminopeptidase N = molecular target: T1, Aminopeptidase N (Sus scrofa, UniProt P15145); test: Inhibition of porcine kidney microsomal CD13 using L-leucine-p-nitroanilide as substrate preincubated for 5 mins followed by substrate addition and measured after 30 mins by microplate reader analysis; assay type: microsomes, Microsome
T1 sequence (P15145 whole entry): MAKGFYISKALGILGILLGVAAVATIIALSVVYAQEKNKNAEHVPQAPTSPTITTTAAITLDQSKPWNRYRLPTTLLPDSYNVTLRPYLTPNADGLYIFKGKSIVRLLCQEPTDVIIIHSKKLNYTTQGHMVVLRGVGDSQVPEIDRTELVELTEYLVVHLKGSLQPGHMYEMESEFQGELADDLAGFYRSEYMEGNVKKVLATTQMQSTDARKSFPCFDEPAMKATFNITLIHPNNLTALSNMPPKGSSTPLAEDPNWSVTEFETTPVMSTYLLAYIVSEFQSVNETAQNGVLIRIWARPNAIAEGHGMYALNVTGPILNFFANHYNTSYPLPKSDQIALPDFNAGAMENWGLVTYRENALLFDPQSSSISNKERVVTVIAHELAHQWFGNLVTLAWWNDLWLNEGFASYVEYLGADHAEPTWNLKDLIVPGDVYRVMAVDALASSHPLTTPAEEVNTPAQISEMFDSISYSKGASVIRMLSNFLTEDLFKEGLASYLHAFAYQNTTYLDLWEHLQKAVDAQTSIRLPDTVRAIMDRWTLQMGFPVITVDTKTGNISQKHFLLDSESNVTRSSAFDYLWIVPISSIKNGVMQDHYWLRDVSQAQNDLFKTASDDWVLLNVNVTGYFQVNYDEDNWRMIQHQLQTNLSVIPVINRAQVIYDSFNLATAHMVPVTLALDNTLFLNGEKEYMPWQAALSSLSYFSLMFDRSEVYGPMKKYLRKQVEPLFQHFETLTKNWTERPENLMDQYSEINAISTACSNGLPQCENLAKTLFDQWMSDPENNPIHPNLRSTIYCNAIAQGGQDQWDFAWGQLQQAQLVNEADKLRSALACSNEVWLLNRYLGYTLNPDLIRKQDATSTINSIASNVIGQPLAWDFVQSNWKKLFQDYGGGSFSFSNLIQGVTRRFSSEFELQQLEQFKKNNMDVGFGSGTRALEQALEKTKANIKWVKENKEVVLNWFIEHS

HUVEC [22] = test: Anti-angiogenesis activity in HUVEC assessed as inhibition of capillary like tube formation incubated for 6 hrs by matrigel based capillary tube formation assay; assay type: functional, cell-based; conditions: Homo sapiens, dose 10-30 µM
A549 = test: Antiproliferative activity against human A549 cells after 48 hrs by MTT assay; conditions: A549, 48 h

For `CCCCCOC(=O)Nc1nc(=O)n([C@@H]2O[C@H](C)[C@@H](O)[C@H]2O)cc1F`, the Activity (H22 [1]) was “Active”.

With `O=c1[nH]cc(F)c(=O)[nH]1` [FLUOROURACIL] the IC50 (PLC-PRF-5 [2]) was 38.4 µM, the IC50 (KG-1) was 83 µM and the IC50 (HEL) was 32.3 µM. The IC50 (HepG2) was 13.5 µM, the IC50 [3] was 93.5 µM and the IC50 [4] was 29 µM. The IC50 (HeLa) was 133 µM, the IC50 (MDA-MB-231) was 22.5 µM and the IC50 (HCT-116) was 84.9 µM. The Activity (H22 [5]) was “inactive”, the IC50 (PC-3) was 106 µM and the IC50 [6] was 60.8 µM. For the same molecule, the IC50 (MCF7) was 71.5 µM and the Activity (H22 [7]) was “Active”.

For `CC(C)C[C@H](NC(=O)[C@@H](O)[C@H](N)Cc1ccccc1)C(=O)OCn1cc(F)c(=O)[nH]c1=O.Cl`, the IC50 (PLC-PRF-5 [2]) was 17.5 µM, the Activity [8] was “Non-Toxic” and the Activity (H22 [9]) was “Dose-dependent effect”. For the same molecule, the IC50 (KG-1) was 30.9 µM, the IC50 (HEL) was 9.18 µM and the IC50 (HepG2) was 7.49 µM. The Activity (HUVEC [10]) was 100%, the IC50 [3] was 22.8 µM and the Activity (H22 [11]) was “Dose-dependent effect”. The Activity (PLC-PRF-5 [12]) was “Dose-dependent effect”, the Activity (H22 [13]) was “Active” and the Activity (H22 [14]) was “Dose-dependent effect”. The Activity (PLC-PRF-5 [15]) was “Dose-dependent effect”, the Drug metabolism [16] was “Metabolite_Detected” and the Activity [17] was “Non-Toxic”. The Activity [18] was “Non-Toxic”, the IC50 [4] was 11.5 µM and the Activity (Aorta) was “Active”. The Activity [19] was “Non-Toxic”, the Activity [20] was “Non-Toxic” and the IC50 (HeLa) was 7.27 µM. For the same molecule, the Activity (H22 [21]) was “Active”, the IC50 (Aminopeptidase N) was 6.98 µM and the IC50 (MDA-MB-231) was 10.5 µM. The IC50 (HCT-116) was 14.7 µM, the Activity (H22 [5]) was “Active” and the IC50 (PC-3) was 24.3 µM. For the same molecule, the Activity (HUVEC [22]) was “Dose-dependent effect”, the IC50 (A549) was 5.68 µM and the IC50 [6] was 25.9 µM. It also gave an IC50 (MCF7) of 19 µM.

In the case of `CC(C)C[C@H](NC(=O)[C@@H](O)[C@H](N)Cc1ccccc1)C(=O)O` [UBENIMEX], the IC50 (PLC-PRF-5 [2]) is reported as greater than 500 µM, the IC50 (KG-1) is reported as greater than 500 µM and the IC50 (HEL) is reported as 417 µM. The IC50 (HepG2) was greater than 500 µM, the Activity (HUVEC [10]; Homo sapiens) was “Active” and the IC50 [3] was greater than 500 µM. For the same molecule, the IC50 [4] was greater than 500 µM, the Activity (Aorta) was “Active” and the IC50 (HeLa) was greater than 500 µM. It also gave an IC50 (MDA-MB-231) greater than 500 µM, an IC50 (HCT-116) of 315 µM and an IC50 [6] greater than 500 µM. For the same molecule, the IC50 (MCF7) was greater than 500 µM.
